Source: US12157741B2, “Macrocyclic inhibitors of DYRK1A” (DANA-FARBER CANCER INSTITUTE, INC., priority 2018, dated 2024)
Where two headings read alike, the source gives them in different places.

Key:
Format in all cases: binding
various enzymes [1] = target: T1, various enzymes (Homo sapiens, UniProt O14733); conditions: compound 1 uM
T1 sequence (O14733 1-419): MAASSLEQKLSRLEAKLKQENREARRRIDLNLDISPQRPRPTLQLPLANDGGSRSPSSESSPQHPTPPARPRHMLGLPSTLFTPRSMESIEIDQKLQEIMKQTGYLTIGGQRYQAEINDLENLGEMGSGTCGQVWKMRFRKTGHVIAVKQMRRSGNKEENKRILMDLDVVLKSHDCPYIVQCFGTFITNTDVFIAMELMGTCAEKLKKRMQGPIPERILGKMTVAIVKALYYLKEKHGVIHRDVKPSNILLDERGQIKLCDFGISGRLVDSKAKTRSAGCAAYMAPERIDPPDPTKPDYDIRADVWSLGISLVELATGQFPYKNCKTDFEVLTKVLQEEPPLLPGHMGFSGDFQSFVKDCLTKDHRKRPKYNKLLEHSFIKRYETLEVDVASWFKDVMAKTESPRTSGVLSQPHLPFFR
Description: (§1) Ambit profiling was conducted in accordance with the manufacturer's instructions.

various enzymes [2] = target: various enzymes (Homo sapiens, UniProt O43293); conditions: compound 1 uM
Description: as §1

various enzymes [3] = target: various enzymes (Homo sapiens, UniProt O43318); conditions: compound 1 uM
Description: as §1

various enzymes [4] = target: various enzymes (Homo sapiens, UniProt O76039); conditions: compound 1 uM
Description: as §1

various enzymes [5] = target: various enzymes (Homo sapiens, UniProt P00519, T315I)
Description: as §1

various enzymes [6] = target: various enzymes (Homo sapiens, UniProt P04626); conditions: compound 1 uM
Description: as §1

various enzymes [7] = target: various enzymes (Homo sapiens, UniProt P07949, V804L)
Description: as §1

various enzymes [8] = target: various enzymes (Homo sapiens, UniProt P09619); conditions: compound 1 uM
Description: as §1

various enzymes [9] = target: various enzymes (Homo sapiens, UniProt P0C1S8); conditions: compound 1 uM
Description: as §1

various enzymes [10] = target: various enzymes (Homo sapiens, UniProt P15735); conditions: compound 1 uM
Description: as §1

various enzymes [11] = target: various enzymes (Homo sapiens, UniProt P22607, G697C)
various enzymes (Homo sapiens, UniProt P22607, G697C), sequence (P22607 23-806 G697C): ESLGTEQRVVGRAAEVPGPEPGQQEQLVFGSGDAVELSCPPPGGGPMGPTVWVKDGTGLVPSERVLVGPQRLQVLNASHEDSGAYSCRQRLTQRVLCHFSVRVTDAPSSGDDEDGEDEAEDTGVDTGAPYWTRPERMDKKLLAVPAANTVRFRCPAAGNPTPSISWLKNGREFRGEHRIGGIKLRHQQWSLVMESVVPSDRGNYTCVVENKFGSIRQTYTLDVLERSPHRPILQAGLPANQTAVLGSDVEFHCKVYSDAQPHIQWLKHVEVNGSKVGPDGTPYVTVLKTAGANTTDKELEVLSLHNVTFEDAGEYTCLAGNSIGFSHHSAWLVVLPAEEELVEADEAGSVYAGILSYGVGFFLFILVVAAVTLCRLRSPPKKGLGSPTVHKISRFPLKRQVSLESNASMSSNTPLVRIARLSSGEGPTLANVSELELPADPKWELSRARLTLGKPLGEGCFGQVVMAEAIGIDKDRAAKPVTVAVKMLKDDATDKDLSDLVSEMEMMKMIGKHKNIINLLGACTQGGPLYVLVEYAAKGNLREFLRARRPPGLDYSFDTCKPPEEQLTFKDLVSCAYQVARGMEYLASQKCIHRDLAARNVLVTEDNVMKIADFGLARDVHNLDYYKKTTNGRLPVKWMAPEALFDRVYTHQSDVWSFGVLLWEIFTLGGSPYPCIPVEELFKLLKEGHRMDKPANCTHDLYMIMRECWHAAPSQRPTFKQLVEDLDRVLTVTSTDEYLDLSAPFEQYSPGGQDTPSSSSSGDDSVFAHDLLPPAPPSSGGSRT
Description: as §1

various enzymes [12] = target: various enzymes (Homo sapiens, UniProt P27037); conditions: compound 1 uM
Description: as §1

various enzymes [13] = target: various enzymes (Homo sapiens, UniProt P29317); conditions: compound 1 uM
various enzymes (Homo sapiens, UniProt P29317), sequence (P29317 24-976): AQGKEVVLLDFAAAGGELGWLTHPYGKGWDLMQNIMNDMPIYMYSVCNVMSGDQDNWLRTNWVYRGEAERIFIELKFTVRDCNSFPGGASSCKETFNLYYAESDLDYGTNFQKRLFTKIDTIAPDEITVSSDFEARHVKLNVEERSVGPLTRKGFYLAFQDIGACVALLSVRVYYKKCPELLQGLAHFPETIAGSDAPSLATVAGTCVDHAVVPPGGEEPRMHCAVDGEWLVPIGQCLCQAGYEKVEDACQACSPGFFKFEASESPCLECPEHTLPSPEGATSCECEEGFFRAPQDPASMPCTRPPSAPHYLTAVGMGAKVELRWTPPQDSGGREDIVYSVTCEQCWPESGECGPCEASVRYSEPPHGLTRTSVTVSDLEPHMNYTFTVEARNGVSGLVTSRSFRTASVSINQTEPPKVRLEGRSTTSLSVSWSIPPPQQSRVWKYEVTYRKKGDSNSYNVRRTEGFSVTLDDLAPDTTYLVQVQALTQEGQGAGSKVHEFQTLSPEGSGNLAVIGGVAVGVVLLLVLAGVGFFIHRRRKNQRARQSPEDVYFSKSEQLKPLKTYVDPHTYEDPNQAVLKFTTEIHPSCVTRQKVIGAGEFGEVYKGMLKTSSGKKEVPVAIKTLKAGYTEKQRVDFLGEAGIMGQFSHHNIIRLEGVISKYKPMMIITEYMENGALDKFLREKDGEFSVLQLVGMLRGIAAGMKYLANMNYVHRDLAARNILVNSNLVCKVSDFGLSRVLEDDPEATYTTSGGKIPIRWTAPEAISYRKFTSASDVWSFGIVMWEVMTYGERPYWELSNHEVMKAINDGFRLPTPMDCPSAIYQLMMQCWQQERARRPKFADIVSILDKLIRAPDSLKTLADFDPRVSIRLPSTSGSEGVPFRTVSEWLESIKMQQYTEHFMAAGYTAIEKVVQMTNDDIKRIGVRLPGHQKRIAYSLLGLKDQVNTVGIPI
Description: as §1

various enzymes [14] = target: various enzymes (Homo sapiens, UniProt P31751); conditions: compound 1 uM
Description: as §1

various enzymes [15] = target: various enzymes (Homo sapiens, UniProt P36888, N841I); conditions: compound 1 uM
Description: as §1

various enzymes [16] = target: various enzymes (Homo sapiens, UniProt P42684); conditions: compound 1 uM
various enzymes (Homo sapiens, UniProt P42684), sequence (P42684 whole entry): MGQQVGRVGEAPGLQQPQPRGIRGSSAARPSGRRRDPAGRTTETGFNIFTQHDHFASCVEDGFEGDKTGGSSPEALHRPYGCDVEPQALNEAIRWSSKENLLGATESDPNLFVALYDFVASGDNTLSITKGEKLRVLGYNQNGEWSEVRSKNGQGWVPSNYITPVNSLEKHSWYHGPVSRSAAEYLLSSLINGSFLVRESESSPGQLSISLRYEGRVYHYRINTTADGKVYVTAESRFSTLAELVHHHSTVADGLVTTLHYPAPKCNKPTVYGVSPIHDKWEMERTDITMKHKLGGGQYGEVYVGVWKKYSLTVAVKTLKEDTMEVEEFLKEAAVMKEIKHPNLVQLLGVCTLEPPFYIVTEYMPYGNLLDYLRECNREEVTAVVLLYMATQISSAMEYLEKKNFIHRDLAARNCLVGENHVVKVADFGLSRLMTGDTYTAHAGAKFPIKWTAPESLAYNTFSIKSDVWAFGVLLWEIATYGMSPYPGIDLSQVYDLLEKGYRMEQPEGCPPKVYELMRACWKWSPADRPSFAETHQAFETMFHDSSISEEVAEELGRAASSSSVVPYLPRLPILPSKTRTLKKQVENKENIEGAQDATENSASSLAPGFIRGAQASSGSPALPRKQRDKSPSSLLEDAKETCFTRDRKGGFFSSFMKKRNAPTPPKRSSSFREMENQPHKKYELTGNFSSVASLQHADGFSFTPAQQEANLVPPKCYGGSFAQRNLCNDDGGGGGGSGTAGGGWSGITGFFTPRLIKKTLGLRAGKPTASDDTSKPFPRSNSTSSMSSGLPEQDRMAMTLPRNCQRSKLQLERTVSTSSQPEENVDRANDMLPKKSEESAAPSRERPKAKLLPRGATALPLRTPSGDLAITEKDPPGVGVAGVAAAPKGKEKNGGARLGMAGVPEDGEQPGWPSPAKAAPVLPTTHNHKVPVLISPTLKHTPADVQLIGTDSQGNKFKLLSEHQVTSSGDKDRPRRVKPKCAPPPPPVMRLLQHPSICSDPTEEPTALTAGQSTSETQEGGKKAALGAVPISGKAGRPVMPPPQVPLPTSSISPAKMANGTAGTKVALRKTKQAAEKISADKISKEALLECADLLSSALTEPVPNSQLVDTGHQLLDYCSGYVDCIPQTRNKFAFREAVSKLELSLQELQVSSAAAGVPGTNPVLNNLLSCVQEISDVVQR
Description: as §1

various enzymes [17] = target: various enzymes (Homo sapiens, UniProt P46734); conditions: compound 1 uM
Description: as §1

various enzymes [18] = target: various enzymes (Homo sapiens, UniProt P50750); conditions: compound 1 uM
Description: as §1

various enzymes [19] = target: various enzymes (Homo sapiens, UniProt P51955); conditions: compound 1 uM
Description: as §1

various enzymes [20] = target: various enzymes (Homo sapiens, UniProt P51956); conditions: compound 1 uM
Description: as §1

various enzymes [21] = target: various enzymes (Homo sapiens, UniProt P51957); conditions: compound 1 uM
various enzymes (Homo sapiens, UniProt P51957), sequence (P51957 whole entry): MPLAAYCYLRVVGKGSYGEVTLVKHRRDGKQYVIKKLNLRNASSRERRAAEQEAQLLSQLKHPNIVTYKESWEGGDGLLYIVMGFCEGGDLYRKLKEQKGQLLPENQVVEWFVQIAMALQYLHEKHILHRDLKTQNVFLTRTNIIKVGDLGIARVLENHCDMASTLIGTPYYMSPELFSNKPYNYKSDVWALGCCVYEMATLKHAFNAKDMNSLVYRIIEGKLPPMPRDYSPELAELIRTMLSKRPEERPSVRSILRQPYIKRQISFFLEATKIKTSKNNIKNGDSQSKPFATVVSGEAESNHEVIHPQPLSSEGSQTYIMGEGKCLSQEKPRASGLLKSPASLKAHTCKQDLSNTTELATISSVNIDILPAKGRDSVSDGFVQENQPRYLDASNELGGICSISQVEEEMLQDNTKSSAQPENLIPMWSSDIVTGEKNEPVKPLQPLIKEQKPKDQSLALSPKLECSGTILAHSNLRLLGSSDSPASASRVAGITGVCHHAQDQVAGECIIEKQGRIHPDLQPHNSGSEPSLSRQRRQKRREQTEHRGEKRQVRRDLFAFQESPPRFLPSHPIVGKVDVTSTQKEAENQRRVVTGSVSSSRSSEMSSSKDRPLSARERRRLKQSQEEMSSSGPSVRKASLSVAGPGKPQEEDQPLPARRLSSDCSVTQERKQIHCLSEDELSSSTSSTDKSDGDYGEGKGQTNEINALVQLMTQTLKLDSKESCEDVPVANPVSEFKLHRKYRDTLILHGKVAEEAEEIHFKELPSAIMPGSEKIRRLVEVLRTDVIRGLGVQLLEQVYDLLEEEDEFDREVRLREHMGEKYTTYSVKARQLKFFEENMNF
Description: as §1

various enzymes [22] = target: various enzymes (Homo sapiens, UniProt P78356); conditions: compound 1 uM
various enzymes (Homo sapiens, UniProt P78356), sequence (P78356 whole entry): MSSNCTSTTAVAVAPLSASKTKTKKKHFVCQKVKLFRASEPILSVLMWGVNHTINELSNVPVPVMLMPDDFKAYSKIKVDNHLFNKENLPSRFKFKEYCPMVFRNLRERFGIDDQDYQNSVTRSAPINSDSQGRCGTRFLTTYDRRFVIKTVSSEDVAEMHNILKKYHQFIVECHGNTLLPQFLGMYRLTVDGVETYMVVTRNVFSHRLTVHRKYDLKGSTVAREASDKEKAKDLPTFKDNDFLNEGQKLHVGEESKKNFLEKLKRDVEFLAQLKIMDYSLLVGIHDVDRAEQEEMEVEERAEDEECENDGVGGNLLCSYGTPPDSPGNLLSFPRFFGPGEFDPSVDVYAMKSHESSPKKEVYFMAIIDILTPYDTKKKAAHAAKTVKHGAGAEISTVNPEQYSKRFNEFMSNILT
Description: as §1

various enzymes [23] = target: various enzymes (Homo sapiens, UniProt Q00535); conditions: compound 1 uM
Description: as §1

various enzymes [24] = target: various enzymes (Homo sapiens, UniProt Q13164); conditions: compound 1 uM
Description: as §1

various enzymes [25] = target: various enzymes (Homo sapiens, UniProt Q13470); conditions: compound 1 uM
Description: as §1

various enzymes [26] = target: various enzymes (Homo sapiens, UniProt Q13882); conditions: compound 1 uM
Description: as §1

various enzymes [27] = target: various enzymes (Homo sapiens, UniProt Q14289); conditions: compound 1 uM
Description: as §1

various enzymes [28] = target: various enzymes (Homo sapiens, UniProt Q16659); conditions: compound 1 uM
Description: as §1

various enzymes [29] = target: various enzymes (Homo sapiens, UniProt Q86UX6); conditions: compound 1 uM
Description: as §1

various enzymes [30] = target: various enzymes (Homo sapiens, UniProt Q92630); conditions: compound 1 uM
Description: as §1

various enzymes [31] = target: various enzymes (Homo sapiens, UniProt Q96RR4); conditions: compound 1 uM
Description: as §1

various enzymes [32] = target: various enzymes (Homo sapiens, UniProt Q9H422); conditions: compound 1 uM
Description: as §1

various enzymes [33] = target: various enzymes (Homo sapiens, UniProt Q9HBY8); conditions: compound 1 uM
various enzymes (Homo sapiens, UniProt Q9HBY8), sequence (Q9HBY8 whole entry): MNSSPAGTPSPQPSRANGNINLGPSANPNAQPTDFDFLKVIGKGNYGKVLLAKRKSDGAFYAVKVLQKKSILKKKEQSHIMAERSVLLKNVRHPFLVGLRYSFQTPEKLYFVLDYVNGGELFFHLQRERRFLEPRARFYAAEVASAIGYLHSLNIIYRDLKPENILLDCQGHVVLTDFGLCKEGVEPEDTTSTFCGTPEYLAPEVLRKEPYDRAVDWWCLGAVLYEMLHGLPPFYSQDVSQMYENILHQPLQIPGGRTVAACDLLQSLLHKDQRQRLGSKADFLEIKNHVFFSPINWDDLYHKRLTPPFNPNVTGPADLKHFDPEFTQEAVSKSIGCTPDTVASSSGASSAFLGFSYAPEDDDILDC
Description: as §1

various enzymes [34] = target: various enzymes (Homo sapiens, UniProt Q9NYL2); conditions: compound 1 uM
Description: as §1

various enzymes [35] = target: various enzymes (Homo sapiens, UniProt Q9P289); conditions: compound 1 uM
various enzymes (Homo sapiens, UniProt Q9P289), sequence (Q9P289 whole entry): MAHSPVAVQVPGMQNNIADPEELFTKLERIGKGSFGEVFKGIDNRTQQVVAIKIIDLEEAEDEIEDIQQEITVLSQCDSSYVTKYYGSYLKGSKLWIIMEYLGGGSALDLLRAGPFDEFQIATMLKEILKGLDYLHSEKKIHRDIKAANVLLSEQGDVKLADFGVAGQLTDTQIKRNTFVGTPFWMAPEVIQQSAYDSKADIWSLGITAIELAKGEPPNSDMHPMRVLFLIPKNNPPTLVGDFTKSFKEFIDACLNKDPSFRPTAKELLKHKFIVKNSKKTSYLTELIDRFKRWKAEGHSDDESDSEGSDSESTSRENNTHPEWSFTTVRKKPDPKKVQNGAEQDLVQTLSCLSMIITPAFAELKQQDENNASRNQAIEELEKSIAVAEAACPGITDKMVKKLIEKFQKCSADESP
Description: as §1

various enzymes [36] = target: various enzymes (Homo sapiens, UniProt Q9UQM7); conditions: compound 1 uM
Description: as §1

CC(C)N1Cc2nn(C)cc2-c2cnc3[nH]cc(c3c2)-c2cn(nc2C(F)(F)F)CCCC1=O [Compound 45, (Z)-5-isopropyl-31-methyl-13-(trifluoromethyl)-11H,21H,31H-5-aza-2(3,5)-pyrrolo[2,3-b]pyridina-1(4,1),3(4,3)-dipyrazolacyclononaphan-6-one]
Ambit profiling: MKK7 (various enzymes [1]): 76 | Ambit profiling: DAPK3 (various enzymes [2]): 99 | Ambit profiling: TAK1 (various enzymes [3]): 4.1 | Ambit profiling: CDKL5 (various enzymes [4]): 68 | Ambit profiling: ABL1(T315I)-nonphosphorylated (various enzymes [5]; compound 1 uM): 9.4 | Ambit profiling: ABL1(T315I)-phosphorylated (various enzymes [5]; compound 1 uM): 11 | Ambit profiling: ERBB2 (various enzymes [6]): 100 | Ambit profiling: RET(V804L) (various enzymes [7]; compound 1 uM): 10 | Ambit profiling: PDGFRB (various enzymes [8]): 0.1 | Ambit profiling: WEE2 (various enzymes [9]): 100 | Ambit profiling: PHKG2 (various enzymes [10]): 44 | Ambit profiling: FGFR3(G697C) (various enzymes [11]; compound 1 uM): 4.5 | Ambit profiling: ACVR2A (various enzymes [12]): 100 | Ambit profiling: EPHA2 (various enzymes [13]): 48 | Ambit profiling: AKT2 (various enzymes [14]): 100 | Ambit profiling: FLT3(N841I) (various enzymes [15]): 0 | Ambit profiling: ABL2 (various enzymes [16]): 42 | Ambit profiling: MEK3 (various enzymes [17]): 0 | Ambit profiling: CDK9 (various enzymes [18]): 60 | Ambit profiling: NEK2 (various enzymes [19]): 49 | Ambit profiling: NEK3 (various enzymes [20]): 50 | Ambit profiling: NEK4 (various enzymes [21]): 93 | Ambit profiling: PIP5K2B (various enzymes [22]): 23 | Ambit profiling: CDK5 (various enzymes [23]): 86 | Ambit profiling: ERK5 (various enzymes [24]): 100 | Ambit profiling: TNK1 (various enzymes [25]): 12 | Ambit profiling: BRK (various enzymes [26]): 100 | Ambit profiling: PYK2 (various enzymes [27]): 30 | Ambit profiling: ERK3 (various enzymes [28]): 100 | Ambit profiling: YANK3 (various enzymes [29]): 100 | Ambit profiling: DYRK2 (various enzymes [30]): 25 | Ambit profiling: CAMKK2 (various enzymes [31]): 5.8 | Ambit profiling: HIPK3 (various enzymes [32]): 15 | Ambit profiling: SGK2 (various enzymes [33]): 23 | Ambit profiling: ZAK (various enzymes [34]): 45 | Ambit profiling: MST4 (various enzymes [35]): 24 | Ambit profiling: CAMK2A (various enzymes [36]): 7.7

COc1c2c(nn1C)CN(C(C)C)C(=O)CCCn1cc(c(C(F)(F)F)n1)-c1c[nH]c3ncc-2cc13 [Compound 50, (Z)-5-isopropyl-35-methoxy-31-methyl-13-(trifluoromethyl)-11H,21H,31H-5-aza-2(3,5)-pyrrolo[2,3-b]pyridina-1(4,1),3(4,3)-dipyrazolacyclononaphan-6-one]
Ambit profiling: MKK7 (various enzymes [1]): 80 | Ambit profiling: DAPK3 (various enzymes [2]): 71 | Ambit profiling: TAK1 (various enzymes [3]): 9.1 | Ambit profiling: CDKL5 (various enzymes [4]): 100 | Ambit profiling: ABLT(T315I)-nonphosphorylated (various enzymes [5]): 8.8 | Ambit profiling: ABLT(T315I)-phosphorylated (various enzymes [5]): 4.9 | Ambit profiling: ERBB2 (various enzymes [6]): 86 | Ambit profiling: RET(V804L) (various enzymes [7]): 18 | Ambit profiling: PDGFRB (various enzymes [8]): 0 | Ambit profiling: WEE2 (various enzymes [9]): 73 | Ambit profiling: PHKG2 (various enzymes [10]): 53 | Ambit profiling: FGFR3(G697C) (various enzymes [11]): 6.4 | Ambit profiling: ACVR2A (various enzymes [12]): 96 | Ambit profiling: EPHA2 (various enzymes [13]): 56 | Ambit profiling: AKT2 (various enzymes [14]): 86 | Ambit profiling: FLT3(N841) (various enzymes [15]): 0 | Ambit profiling: ABL2 (various enzymes [16]): 22 | Ambit profiling: MEK3 (various enzymes [17]): 7.1 | Ambit profiling: CDK9 (various enzymes [18]): 47 | Ambit profiling: NEK2 (various enzymes [19]): 68 | Ambit profiling: NEK3 (various enzymes [20]): 51 | Ambit profiling: NEK4 (various enzymes [21]): 100 | Ambit profiling: PIP5K2B (various enzymes [22]): 35 | Ambit profiling: CDK5 (various enzymes [23]): 89 | Ambit profiling: ERK5 (various enzymes [24]): 70 | Ambit profiling: TNK1 (various enzymes [25]): 28 | Ambit profiling: BRK (various enzymes [26]): 80 | Ambit profiling: PYK2 (various enzymes [27]): 19 | Ambit profiling: ERK3 (various enzymes [28]): 69 | Ambit profiling: YANK3 (various enzymes [29]): 74 | Ambit profiling: DYRK2 (various enzymes [30]): 56 | Ambit profiling: CAMKK2 (various enzymes [31]): 5.8 | Ambit profiling: HIPK3 (various enzymes [32]): 26 | Ambit profiling: SGK2 (various enzymes [33]): 59 | Ambit profiling: ZAK (various enzymes [34]): 58 | Ambit profiling: MST4 (various enzymes [35]): 60 | Ambit profiling: CAMK2A (various enzymes [36]): 12
